Measured values as given in PubChem BioAssay (NCI).
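Assay format: 96-well plates, 48-hour exposure. TGI: concentration producing complete growth inhibition.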

Tests used:
Test in all cases: NCI-60 cell line screen, 48 h
[1] = system: ACHN renal
[2] = system: SK-MEL-28 melanoma
[3] = system: OVCAR-8 ovarian
[4] = system: KM12 colon
[5] = system: HCT-15 colon
[6] = system: MOLT-4 leukemia
[7] = system: U251 CNS
[8] = system: SN12C renal
[9] = system: HT29 colon
[10] = system: IGROV1 ovarian
[11] = system: NCI/ADR-RES ovarian
[12] = system: UO-31 renal
[13] = system: HOP-62 NSCLC
[14] = system: M14 melanoma
[15] = system: SK-MEL-5 melanoma
[16] = system: OVCAR-4 ovarian
[17] = system: RPMI-8226 leukemia
[18] = system: SW-620 colon
[19] = system: HCT-116 colon
[20] = system: MALME-3M melanoma
[21] = system: A549 NSCLC
[22] = system: SF-539 CNS
[23] = system: MCF7 breast
[24] = system: T-47D breast
[25] = system: PC-3 prostate
[26] = system: NCI-H226 lung
[27] = system: HL-60(TB) leukemia
[28] = system: MDA-N
[29] = system: HOP-92 NSCLC
[30] = system: LOX IMVI melanoma
[31] = system: MDA-MB-231 breast
[32] = system: DU-145 prostate
[33] = system: NCI-H23 lung
[34] = system: TK-10 renal
[35] = system: K-562 leukemia
[36] = system: SK-MEL-2 melanoma
[37] = system: SK-OV-3 ovarian
[38] = system: HCC-2998 colon
[39] = system: UACC-257 melanoma
[40] = system: SNB-19 CNS
[41] = system: SF-295 CNS
[42] = system: CAKI-1 renal
[43] = system: 786-0 renal
[44] = system: COLO 205 colon
[45] = system: SNB-75 CNS
[46] = system: OVCAR-3 ovarian
[47] = system: RXF 393 renal
[48] = system: OVCAR-5 ovarian
[49] = system: NCI-H522 lung
[50] = system: CCRF-CEM leukemia
[51] = system: EKVX NSCLC
[52] = system: A498 renal
[53] = system: UACC-62 melanoma
[54] = system: MDA-MB-435

O=C1O/C(=C/c2ccccc2)C(c2ccccc2)=C1O
TGI [1]: > 100 µM
TGI [2]: > 100 µM
TGI [3]: > 100 µM
TGI [4]: > 100 µM
TGI [5]: > 100 µM
TGI [6]: > 100 µM
TGI [7]: 82.7 µM
TGI [8]: > 100 µM
TGI [9]: > 100 µM
TGI [10]: > 100 µM
TGI [11]: > 100 µM
TGI [12]: 88.1 µM
TGI [13]: 94.3 µM
TGI [14]: > 100 µM
TGI [15]: 80.9 µM
TGI [16]: > 100 µM
TGI [17]: 83.3 µM
TGI [18]: > 100 µM
TGI [19]: > 100 µM
TGI [20]: > 100 µM
TGI [21]: > 100 µM
TGI [22]: > 100 µM
TGI [23]: > 100 µM
TGI [24]: 74.2 µM
TGI [25]: > 100 µM
TGI [26]: > 100 µM
TGI [27]: 48.3 µM
TGI [28]: > 100 µM
TGI [29]: > 100 µM
TGI [30]: > 100 µM
TGI [31]: > 100 µM
TGI [32]: 97 µM
TGI [33]: 44.7 µM
TGI [34]: > 100 µM
TGI [35]: > 100 µM
TGI [36]: 31.6 µM
TGI [37]: > 100 µM
TGI [38]: > 100 µM
TGI [39]: > 100 µM
TGI [40]: > 100 µM
TGI [41]: > 100 µM
TGI [42]: > 100 µM
TGI [43]: > 100 µM
TGI [44]: > 100 µM
TGI [45]: > 100 µM
TGI [46]: 44.1 µM
TGI [47]: 70.3 µM
TGI [48]: > 100 µM
TGI [49]: > 100 µM
TGI [50]: > 100 µM
TGI [51]: > 100 µM
TGI [52]: 85.6 µM
TGI [53]: 33.8 µM
TGI [54]: 89.1 µM
